Reference: paper PMC7069944, “Amino acid levels determine metabolism and CYP450 function of hepatocytes and hepatoma cell lines” (Nature Communications, 2020)
Several values for one entry are separate records, joined by “and”; a condition that tells them apart may be missing. Equal values may be shown once.

Columns and labels:
HC3X = assay: Repeated-exposure DILI training compounds, resazurin conversion, HC3X; settings: for resazurin conversion (Supplementary Figure 7D): HC3X AAGLY D40, replicates, listed as Triglitazone
Summary of the method: (§1)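 PSC-derived hepatocyte-like cells were differentiated in 384-well plates, and drugs were added after 8 h of attachment. Viability was measured by resazurin conversion and related to therapeutic Cmax values, with untreated wells as negative control.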

HepG2 = assay: Repeated-exposure DILI training compounds, resazurin conversion, HepG2; settings: replicates, listed as Triglitazone
Summary of the method: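 Hepatotoxicity prediction used a miniaturized 384-well differentiation setup, scoring viability through resazurin reduction relative to Cmax.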

HLC = assay: Repeated-exposure DILI training compounds, resazurin conversion, HLC; settings: replicates, listed as Triglitazone
Summary of the method: as §1

HC6X = assay: Repeated-exposure DILI training compounds, resazurin conversion, HC6X; settings: replicates, listed as Triglitazone
Summary of the method: as §1

Cc1c(C)c2c(c(C)c1O)CCC(C)(COc1ccc(CC3SC(=O)NC3=O)cc1)O2 (centres unmarked) [troglitazone]
resazurin conversion (Supplementary Figure 7D) (HC3X; 3 uM): 100.4 and 118.6 and 117.6 and 139.7 and 113 and 95.6
resazurin conversion (Supplementary Figure 7D) (HC3X; 5 uM): 108.1 and 113 and 110 and 124 and 122.3 and 125.6
resazurin conversion (Supplementary Figure 7D) (HC3X; 10 uM): 64.3 and 64.1 and 94.3 and 59.1 and 78.4 and 71.8
resazurin conversion (Supplementary Figure 7D) (HC3X; 30 uM): 7.7 (3×) and 7.6 (2×) and 7.8
resazurin conversion (Supplementary Figure 7D) (HC3X; 50 uM): 7.8 (4×) and 7.7 and 7.9
resazurin conversion (Supplementary Figure 7D) (HC3X; 100 uM): 7.7 and 7.9 (2×) and 8 (2×) and 7.8
resazurin conversion (Supplementary Figure 7D) (HC3X; 300 uM): 8.6 (2×) and 8.5 and 8.4 and 8.7 and 8.3
resazurin conversion (Supplementary Figure 7D) (HC3X; 600 uM): 8.6 and 9 and 8.5 and 8.7 and 8.8 and 9.1
resazurin conversion (Supplementary Figure 7D) (HC3X; 1200 uM): 8.5 and 8.9 and 8.6 (2×) and 8.8 and 9
IC50/Cmax (HC3X; human): 1.6
resazurin conversion (Supplementary Figure 7D) (HepG2; HepG2 AAGLY D30, 3 uM): 98.3 and 94.5 and 92
resazurin conversion (Supplementary Figure 7D) (HepG2; HepG2 AAGLY D30, 5 uM): 68.5 and 110.9 and 79 and 93.8 and 74.1 and 107
resazurin conversion (Supplementary Figure 7D) (HepG2; HepG2 AAGLY D30, 10 uM): 74 and 89.9 and 83.3 and 84.8 and 74.9 and 104.6
resazurin conversion (Supplementary Figure 7D) (HepG2; HepG2 AAGLY D30, 30 uM): 79.1 and 100.2 and 93 and 115.8 and 83.4 and 116.8
resazurin conversion (Supplementary Figure 7D) (HepG2; HepG2 AAGLY D30, 50 uM): 83.1 and 117.7 and 95.2 and 107.4 and 94.4 and 118.1
resazurin conversion (Supplementary Figure 7D) (HepG2; HepG2 AAGLY D30, 100 uM): 64.7 and 70 and 66.6 and 77.3 and 64.4 and 73.3
resazurin conversion (Supplementary Figure 7D) (HepG2; HepG2 AAGLY D30, 300 uM): 29.5 and 32.5 and 30.3 and 31.2 and 30.4 and 32
resazurin conversion (Supplementary Figure 7D) (HepG2; HepG2 AAGLY D30, 600 uM): 29.5 and 33.9 and 30.8 and 32.7 and 30.9 and 34.9
resazurin conversion (Supplementary Figure 7D) (HepG2; HepG2 AAGLY D30, 1200 uM): 31 and 33.3 and 30.9 and 31.3 and 30.2 and 34.1
resazurin conversion (Supplementary Figure 7D) (HepG2; HepG2 CTL D7, 3 uM): 96.5
resazurin conversion (Supplementary Figure 7D) (HepG2; HepG2 CTL D7, 5 uM): 108.7 and 103 and 108 and 101.8 and 110.4 and 108.6
resazurin conversion (Supplementary Figure 7D) (HepG2; HepG2 CTL D7, 10 uM): 100.5 and 91 and 96 and 94.6 and 100.7 and 102
resazurin conversion (Supplementary Figure 7D) (HepG2; HepG2 CTL D7, 30 uM): 107.7 and 102.1 and 104.6 and 106.5 and 111.7 and 103.3
resazurin conversion (Supplementary Figure 7D) (HepG2; HepG2 CTL D7, 50 uM): 106.3 and 99.2 and 103.6 and 101.1 and 106.7 and 102.4
resazurin conversion (Supplementary Figure 7D) (HepG2; HepG2 CTL D7, 100 uM): 21.4 and 9.6 and 9.2 and 17 and 16.3 and 15.4
resazurin conversion (Supplementary Figure 7D) (HepG2; HepG2 CTL D7, 300 uM): 8.5 (3×) and 8.1 and 8.3 and 8.2
resazurin conversion (Supplementary Figure 7D) (HepG2; HepG2 CTL D7, 600 uM): 8.3 and 8 (2×) and 8.4 and 7.9 (2×)
resazurin conversion (Supplementary Figure 7D) (HepG2; HepG2 CTL D7, 1200 uM): 9.4 and 9.5 and 9.7 and 9.2 and 9.3 and 9.1
resazurin conversion (Supplementary Figure 7D) (HLC; HLC AAGLY D40, 5 uM): 153.5 and 121.4 and 146 and 101.6 and 123.2 and 125.5
resazurin conversion (Supplementary Figure 7D) (HLC; HLC AAGLY D40, 10 uM): 135.4 and 92.9 and 151 and 74.5 and 125.5 and 149.7
resazurin conversion (Supplementary Figure 7D) (HLC; HLC AAGLY D40, 30 uM): 16.5 and 14.5 and 14 and 11.9 and 15.8 and 12.7
resazurin conversion (Supplementary Figure 7D) (HLC; HLC AAGLY D40, 50 uM): 11.8 (3×) and 11.4 (2×) and 11.7
resazurin conversion (Supplementary Figure 7D) (HLC; HLC AAGLY D40, 100 uM): 11.9 (2×) and 12.3 and 12.2 and 12.1 (2×)
resazurin conversion (Supplementary Figure 7D) (HLC; HLC AAGLY D40, 300 uM): 12.4 and 12.8 (2×) and 12.6 (2×) and 12.7
resazurin conversion (Supplementary Figure 7D) (HLC; HLC AAGLY D40, 600 uM): 13.8 (2×) and 13.7 and 13.2 and 13.4 and 13.6
resazurin conversion (Supplementary Figure 7D) (HLC; HLC AAGLY D40, 1200 uM): 14.9 and 14.8 and 14.3 and 15 and 14.7 and 14.5
resazurin conversion (Supplementary Figure 7D) (HLC; HLC LDM D40, 3 uM): 124.9 and 86.8 and 81.1 and 83.4
resazurin conversion (Supplementary Figure 7D) (HLC; HLC LDM D40, 5 uM): 112.5 and 109.2 and 104.5 and 65.4 and 87.8 and 121.6
resazurin conversion (Supplementary Figure 7D) (HLC; HLC LDM D40, 10 uM): 119.2 and 88.2 and 119.3 and 84.6 and 119 and 129.3
resazurin conversion (Supplementary Figure 7D) (HLC; HLC LDM D40, 30 uM): 64.9 and 19.9 and 24.5 and 26.5 and 51.6 and 125
resazurin conversion (Supplementary Figure 7D) (HLC; HLC LDM D40, 50 uM): 9.4 and 9.5 and 9.6 and 12.8 and 134 and 114.9
resazurin conversion (Supplementary Figure 7D) (HLC; HLC LDM D40, 100 uM): 9.6 and 9.9 and 9.7 and 9.4 and 10.4 and 10.1
resazurin conversion (Supplementary Figure 7D) (HLC; HLC LDM D40, 300 uM): 10.1 (2×) and 10.3 and 9.6 and 10 and 10.2
resazurin conversion (Supplementary Figure 7D) (HLC; HLC LDM D40, 600 uM): 10.4 and 10.5 and 10.2 (2×) and 10.8 and 11.3
resazurin conversion (Supplementary Figure 7D) (HLC; HLC LDM D40, 1200 uM): 11.2 (3×) and 11.3 and 11.1 and 11.5
resazurin conversion (Supplementary Figure 7D) (HC6X; HC6X AAGLY D40, 3 uM): 67.6 and 80.5 and 115.9 and 110.8
resazurin conversion (Supplementary Figure 7D) (HC6X; HC6X AAGLY D40, 5 uM): 97.5 and 124.6 and 75.2 and 88 and 91.2 and 78.9
resazurin conversion (Supplementary Figure 7D) (HC6X; HC6X AAGLY D40, 10 uM): 28.6 and 26.8 and 51 and 28.8 and 31.8 and 23.3
resazurin conversion (Supplementary Figure 7D) (HC6X; HC6X AAGLY D40, 30 uM): 17.6 and 19.6 and 21.9 and 19.3 and 17.4 and 18.4
resazurin conversion (Supplementary Figure 7D) (HC6X; HC6X AAGLY D40, 50 uM): 18.5 and 22.2 and 22.6 and 19.7 and 17.5 and 18.3
resazurin conversion (Supplementary Figure 7D) (HC6X; HC6X AAGLY D40, 100 uM): 17.7 (2×) and 19.3 and 19.5 and 17.5 and 18.3
resazurin conversion (Supplementary Figure 7D) (HC6X; HC6X AAGLY D40, 300 uM): 18.9 and 19.1 and 19.4 (2×) and 19.9 and 18.8
resazurin conversion (Supplementary Figure 7D) (HC6X; HC6X AAGLY D40, 600 uM): 20.5 and 21.3 and 23.4 and 22.4 (2×) and 23.3
resazurin conversion (Supplementary Figure 7D) (HC6X; HC6X AAGLY D40, 1200 uM): 19.6 and 19.4 and 20.1 and 19.9 and 18.6 and 18.9
resazurin conversion (Supplementary Figure 7D) (HC6X; HC6X AAGLY D40 Remove dox, 5 uM): 197.5 and 139.5 and 221.6 and 148.2 and 134.8 and 149.8
resazurin conversion (Supplementary Figure 7D) (HC6X; HC6X AAGLY D40 Remove dox, 10 uM): 133 and 100.2 and 218.5 and 104.9 and 119 and 93.7
resazurin conversion (Supplementary Figure 7D) (HC6X; HC6X AAGLY D40 Remove dox, 30 uM): 24.4 and 26.5 and 25.9 (2×) and 27.1 and 24.9
resazurin conversion (Supplementary Figure 7D) (HC6X; HC6X AAGLY D40 Remove dox, 50 uM): 23.5 (2×) and 23.1 and 23.9 and 23.4 and 23.3
resazurin conversion (Supplementary Figure 7D) (HC6X; HC6X AAGLY D40 Remove dox, 100 uM): 24.4 and 24.5 and 24 and 23.7 and 23.5 and 24.2
resazurin conversion (Supplementary Figure 7D) (HC6X; HC6X AAGLY D40 Remove dox, 300 uM): 25.6 and 24.8 (2×) and 25 (2×) and 24.6
resazurin conversion (Supplementary Figure 7D) (HC6X; HC6X AAGLY D40 Remove dox, 600 uM): 26.9 and 26.7 and 26.1 (2×) and 25.7 and 26.3
resazurin conversion (Supplementary Figure 7D) (HC6X; HC6X AAGLY D40 Remove dox, 1200 uM): 28.5 (2×) and 27.6 and 27.4 and 27.9 and 28.4
